From US4259342A, “Antianginal treatment with azepine derivatives” (priority 1978, dated 1981) come the findings set out here.

In one series the test system is vagotomized rats. The series can be described thus: heart rate lowering effect on vagotomized rats. The class given is in vivo. As to conditions: Rattus norvegicus, iv, 0.5 h, read-out: D50 (dose which lowers the heart rate by 50 beats/min.).
A short description of series [1]: acute toxicity in mice after administration per os (Litchfield and Wilcoxon). Conditions: mouse, in vivo, po, mice of both sexes, deaths within 14 days. The protocol:
The acute toxicity was determined in mice of both sexes with an average body weight of 20 gm after administration per os. From the percentage of the animals which died within 14 days after the administration of various doses, the LD50 was determined according to the method of Litchfield and Wilcoxon (J. Pharmacol. exp. Ther. 96, 99 (1949): […]

Series [2] has as its system patients with angina pectoris. The series can be described thus: exercise test on bicycle ergometer in patients with angina pectoris, crossover single-blind against placebo (antianginal activity). The class given is in vivo. The protocol:
The antianginal activity of
was determined in patients with angina pectoris as follows:
11 Patients with clinical and electrocardiographic symptoms of coronary insufficiency were selected for a crossover comparative single-blind study of compound A against placebo. Only those patients were allocated to one of the 2 treatments who complained of precordial pain at the same workload on 3 different days during the run-in period. In order to avoid carry-over effects the sequence of treatment was A placebo in every patient. 30 minutes after the injection of the test substance the patients were exercised on a bicycle ergometer. They started with a workload of 25 watts, which was increased every 3 minutes by 25 watts until the onset of pain. The heart rate and the blood pressure were registered every minute. The heart rate was determined by means of an ECG; the measurement of the blood pressure was carried out according to Riva-Rocci always by the same medical assistant.
The following parameters were evaluated:
1. Time until the onset of pain
2. Heart rate at the onset of pain
3. Blood pressure at the onset of pain
4. The workload performed, resulting from the sum of the products multiplied by the watts per minute (W×min).
5. The maximum workload, which results from the watts of the last complete exercise period (lasting 3 minutes) and the watts of the next unfinished period (watts)
6. The pressure frequency product as index for the oxygen consumption, which was calculated from the product of the heart rate and of the systolic blood pressure.
Since some patients reported pain without depression of the ST segment, ST segment was not evaluated

Setting [3] is: i.v., vagotomized rats, 30 minutes after administration, 3 dosages, 6 animals each.
The mark [4] stands for this setting: at the moment of the highest comparable workload, 30 minutes after injection.
Where [5] appears, read: at the onset of pain, 30 minutes after injection.

Where a name gives a salt, the structure may show the parent alone. Read-outs that look alike come from different tables or passages of the source.

Description for vagotomized rats: were tested as follows with regard to their heart rate lowering effect on vagotomized rats:
The animals were vagotomized and received a tracheal cannula; a polyethylene catheter was placed into the jugular vein. For measuring the ECG, needle electrodes were clamped to the extremities. During the test the body temperature of the animals was kept constant (34° C.).
After balancing out a constant starting heart rate (determined by counting the heart beats from the ECG), the test compound was intravenously administered to the animal. 30 minutes later the type was measured again.
Each compound was tested at 3 dosages administered to each of 6 animals; only one compound and dose per animal.
The average of the 6 single values per dose (Δ heart rate in beats/min.) was determined, and the dose activity curves were prepared, from which the D50 (dose which lowers the heart rate by 50 beats/min.) was determined:

Usually LD50 stands for the dose expected to kill half of the subjects tested. A higher LD50 goes with a less toxic substance. Take `Cl.Cl.Nc1nc2c(s1)CCN(CCO)CC2` [F, 2-Amino-6-(2-hydroxy-ethyl)-4,5,7,8-tetrahydro-6H-thiazolo[5,4-d]azepine dihydrochloride]: the ED (50 beats/min) in the series with vagotomized rats (setting [3]) is 0.037 mg/kg. Besides, in series [1], the LD50 at 336 h is approximately 1000 mg/kg.
Regarding `Nc1nc2c(s1)CCN(Cc1ccc(Cl)cc1)CC2` [G, 2-Amino-6-(4-chloro-benzyl)-4,5,7,8-tetrahydro-6H-thiazolo[5,4-d]azepine dihydrocloride], the ED (50 beats/min) with vagotomized rats (setting [3]) came out at 1.4 mg/kg. This molecule returned a 50% lethal dose (LD50) at 336 h in series [1] of 905 mg/kg.
For `C=CCN1CCc2nc(N)oc2CC1` [B, 2-Amino-6-allyl-4,5,7,8-tetrahydro-6H-oxoazolo[5,4-d]azepine dihydrochloride], the ED (50 beats/min) in the series with vagotomized rats (setting [3]) came out at 0.1 mg/kg.
Turning to `CCN1CCc2nc(N)sc2CC1.Cl.Cl` [C, 2-Amino-6-ethyl-4,5,7,8-tetrahydro-6H-thiazolo[5,4-d]azepine dihydrochloride], the ED (50 beats/min) in the series with vagotomized rats (setting [3]) came out at 0.032 mg/kg. Moreover, the LD50 at 336 h in series [1] is more than 1500 mg/kg.
Take `CCN1CCc2nc(N)oc2CC1.Cl.Cl` [Compound A, 2-Amino-6-ethyl-4,5,7,8-tetrahydro-6H-oxazolo[5,4-d]azepine dihydrochloride]: the “increase of duration of exercise performance (time patients could be exercised longer) vs control” value in series [2] (30 minutes after injection, control 6 minutes on the average) came out at 2 min. In series [2] (at the highest comparable workload, 30 minutes after injection), the “reduction of heart rate at the highest comparable workload” value is given as 12 beats/min. For the same molecule, in series [2] (setting [4]), the “diastolic blood pressure at the highest comparable workload” value was “unchanged” and the “reduction of systolic blood pressure at the highest comparable workload” value is 19 mm Hg. Further, in series [2] (setting [5]), the “diastolic blood pressure at the onset of pain” value is listed as “unchanged”, the “increase of heart rate at the onset of pain” value was 2 beats/min and the “reduction of systolic blood pressure at the onset of pain” value was found to be 8 mm Hg. Further, in series [2] (last complete minute before stopping, direction not given), the “difference of heart rate between placebo and compound A during the last complete minute before stopping” value amounted to 3 beats/min. The “reduction of systolic blood pressure over placebo during the last minute before stopping” value in series [2] (last minute before stopping) worked out at 9 mm Hg. Moreover, the “product of pressure frequency during the last minute before stopping” value in series [2] (last minute before stopping, placebo 313) is listed as 295. Also, the “product of pressure frequency at the highest comparable strain” value in series [2] (moment of the highest comparable strain, placebo 310) is 258. For the same molecule, the “maximum work (maximum workload)” value in series [2] (placebo 76 watts) came to 87 watts. For the same molecule, the “average work performed until workload was stopped” value in series [2] (placebo 495 W×min) was found to be 627 W×min. Moreover, in series [2] (summary in words), the “O2 consumption of the heart (concluded from rate/pressure product)” value is recorded as “diminishes O2 consumption”; the “effect on duration of exercise and exercise capacity” value was “increases the duration of exercise and exercise capacity”. The ED (50 beats/min) in the series with vagotomized rats stood at 0.5 mg/kg. For the same molecule, the LD50 at 336 h in series [1] was 2210 mg/kg.
As for `CCCN1CCc2nc(N)sc2CC1.Cl.Cl` [Compound D, 2-Amino-6-n-propyl-4,5,7,8-tetrahydro-6H-thiazolo[5,4-d]azepine dihydrochloride], the ED (50 beats/min) with vagotomized rats (setting [3]) was determined as 0.012 mg/kg.
Regarding `C=CCN1CCc2nc(N)sc2CC1.Cl.Cl` [E, 2-Amino-6-allyl-4,5,7,8-tetrahydro-6H-thiazolo[5,4-d]azepine dihydrochloride], the ED (50 beats/min) with vagotomized rats (setting [3]) amounted to 0.042 mg/kg. In series [1], this molecule came in with an LD50 at 336 h of 455 mg/kg.
